Literature values as cited in patent US7879906B2, “GABA analogs, compositions and methods for manufacturing thereof” (Anchen Laboratories, Inc., priority 2006, dated 2011).

Tested on: mouse

Compound	toxicity (LD50, mouse)
NCC1(CC(=O)O)CCCCC1 [gabapentin]	more than 8000 mg/kg
O=C1CC2(CCCCC2)CN1 [gabapentin lactam]	300 mg/kg
